{"source": "patent EP4635565A1", "about": "“PRENYLATED TETRAHYDROQUINOLINES AND QUINOLINES WITH PPAR AGONIST ACTIVITY” (Fundación para la Investigación del Hospital Clínico de la …, priority 2024, dated 2025)", "key": {"hPPARα": {"molecular_target": "T1, hPPARα (Homo sapiens, UniProt Q07869)", "T1 sequence (Q07869 167-468)": "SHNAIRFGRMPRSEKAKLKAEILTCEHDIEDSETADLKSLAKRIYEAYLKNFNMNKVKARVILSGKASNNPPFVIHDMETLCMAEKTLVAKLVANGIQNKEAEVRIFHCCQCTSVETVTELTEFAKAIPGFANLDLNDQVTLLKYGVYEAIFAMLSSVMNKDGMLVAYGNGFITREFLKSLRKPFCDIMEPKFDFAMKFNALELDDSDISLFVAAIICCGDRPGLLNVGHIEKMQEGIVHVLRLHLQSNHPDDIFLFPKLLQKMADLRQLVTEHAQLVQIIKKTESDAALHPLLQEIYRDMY", "assay": "PPAR transactivation assay, human chimeric PPAR/Gal4 reporter luciferase system in Cos-7 cells (PPARα)", "format": "cell-based", "description": "(§1) Transfections were stopped after 16 h by adding DMEM/10% FCS. Cells were detached with trypsin, re-seeded in 96-well plates for 6 h in DMEM/10% FCS, and incubated for 24 h in DMEM/0.2% FCS with increasing concentrations of the test compounds or vehicle (DMSO, 0.1% final concentration). At the end of the experiment, cells were washed once with ice-cold PBS, lysed, and luciferase and β-galactosidase activities were measured. Luciferase activity was normalised to that of the internal control, β-galactosidase. All transfection experiments were performed at least five times.\n(§2) EC50 values against human PPARα/Gal4, PPARβ/δ/Gal4 and PPARγ/Gal4 receptors."}, "hPPARβ/δ": {"molecular_target": "T2, hPPARβ/δ (Homo sapiens, UniProt Q03181)", "T2 sequence (Q03181 171-441)": "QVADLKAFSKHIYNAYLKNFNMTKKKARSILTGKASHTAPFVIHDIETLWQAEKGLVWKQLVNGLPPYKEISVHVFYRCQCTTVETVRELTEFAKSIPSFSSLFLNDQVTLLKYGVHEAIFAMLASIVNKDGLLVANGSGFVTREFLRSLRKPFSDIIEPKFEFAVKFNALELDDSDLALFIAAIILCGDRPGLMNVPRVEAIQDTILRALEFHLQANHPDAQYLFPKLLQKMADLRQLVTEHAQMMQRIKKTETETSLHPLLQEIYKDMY", "assay": "PPAR transactivation assay, human chimeric PPAR/Gal4 reporter luciferase system in Cos-7 cells (PPARβ/δ)", "format": "cell-based", "description": "as §1, §2"}, "THP-1 cells": {"test_system": "THP-1 cells", "assay": "Cytotoxicity, Annexin V-FITC/PI dual staining by flow cytometry", "format": "cell-based, human", "details": "30 and 100 µM, 24 h", "description": "The cytotoxicity of tetrahydroquinoline and quinoline esters 5a, 5b, 8a and 8b was evaluated at 30 and 100 µM by flow cytometry to assess cell survival using an Annexin V-FITC/PI dual staining assay. THP-1 cells (3 × 10^4 cells per well) were seeded in 24-well plates and allowed to grow overnight. The medium was then replaced and incubations with the different compounds or DMSO were performed during 24 h. Then, all cells were processed with the Annexin V-assay kit (ANXCFK7, Immunostep, Salamanca, Spain) according to the manufacturer's instruction. A Becton Dickinson LSR Fortessa cytometer (BD Biosciences, Franklin Lakes, NJ, USA) was used for samples, and cell analysis were performed using FACSDiva X20 software.\nThe potential cytotoxic effects of the compounds of the invention 5a, 5b, 8a, and 8b on the human macrophage cell line THP-1 were evaluated by flow cytometry to assess cell survival using an Annexin V-FITC/PI dual staining assay. The THP-1 cells were treated with concentrations of 30 and 100 µM for 24 h."}, "PDK4-(PPRE)3-Luc+": {"test_system": "PDK4-(PPRE)3-Luc+", "assay": "Pdk4 transactivation assay (PDK4-(PPRE)3-Luc+ reporter in L929sA cells)", "format": "cell-based, mouse", "details": "10 µM, 6 h", "description": "Transfection of L929sA cells stably expressing reporter genes was performed using the calcium phosphate precipitation protocol according to standard procedures with a 10-fold excess of the plasmid of interest in a pGL3-basic vector containing Luc+, a modified firefly luciferase gene (Promega Biotec, Madison, Wis,) USA. USA). The Pdk4 reporter was created using an enhancer site linked to the Pdk4 promoter containing three PPRE extracted from mouse liver genomic DNA. The aforementioned plasmid construct was then introduced into a pMet7 backbone, which had previously been cloned with a luciferase gene site, using Xhol and Sacl cut sites. The resulting construct was subjected to geneticin (neomycin) antibiotic selection to isolate individual clones. A stable cell line, designated Pdk4-Luc+, was subsequently established in L929sA cells, which also contained a constitutively expressed galactosidase reporter and a neomycin selection cassette.\nPyruvate Dehydrogenase Kinase 4 gene (Pdk4), a well-known target gene of PPARs, encodes a protein that regulates the phosphorylation and inactivation of the pyruvate dehydrogenase complex in response to physiological conditions. This response switches the energy source from glucose to fatty acids to maintain blood glucose levels to, thereby, increase lipid metabolism. Because it is a well-known target gene of PPARs, the effect of the 2- and 3-prenylated esters of tetrahydroquinolines and quinolines on a Pdk4 region reported to bind PPARα, was evaluated. The L929sA cells that were stably transfected with a PDK4-(PPRE)3-Luc+ reporter gene construct were used."}, "NF-κB-IL8P-Luc+": {"test_system": "NF-κB-IL8P-Luc+", "assay": "NF-κB-IL8P transactivation assay (TNFα-stimulated L929sA cells)", "format": "cell-based, mouse", "details": "10 µM, 1 h before TNF (2000 IU/ml), total induction time 6 h; compared to GW7647", "description": "L929sA mouse fibroblasts were stably transfected using the calcium phosphate precipitation protocol, as described previously with p1481.IL8P-Luc+ plasmid construct. The indicated induction was performed at least in triplicates. All conditions were solvent-controlled. Subsequently, the cells were washed with PBS and lysed using TROPIX lysis buffer. Cellular luciferase levels were normalised to those of β-galactosidase (TROPIX, Bedford, MA, USA).\nPPARs play crucial roles in controlling inflammatory responses. NF-κB is a transcription factor that plays a pivotal role in the expression of multiple genes involved in the immune and inflammatory responses. To study the potential anti-inflammatory effects of the tetrahydroquinolines and quinolines of the invention, the NF-κB-dependent physiological human IL-8 promoter construct, p1481.IL8P-Luc+, which is stably integrated into L929sA cells, was tested. After transfection, cells were treated at 10 µM with 5a, 5b, 8a, or 8b prior to TNFa stimulation. […] Given the significant decrease in NF-κB-IL8P-Luc+ reporter gene activity observed after treatment with the 2- or 3-prenylated tetrahydroquinolines 5a and 5b and the 3-prenylated quinoline 8b, their potential anti-inflammatory effects at the transcriptional level for other inflammatory mediators was evaluated. To achieve this, the L929sA WT cells were treated with 5a, 5b and 8b at 10 µM for 1 h, followed by TNFa stimulation for a total induction time of 6 h. The expression of inflammatory genes was evaluated by RT-qPCR."}, "[1]": {"test_system": "hPPARα, hPPARβ/δ, and hPPARγ", "assay": "PPAR transactivation assays, agonist profile over the three isoforms", "details": "always with partial activity on the PPARγ isoform"}}}
{"smiles": "CCOC(=O)CC/C(C)=C/CCC1CCc2cc(OCc3ccccc3)ccc2N1C", "note": "(stereo not drawn) [Compound 5a, Ethyl (E)-7-(6-(benzyloxy)-1-methyl-1,2,3,4-tetrahydroquinolin-2-yl)-4-methylhept-4-enoate]", "values": [{"measurement": "EC50", "setting": "hPPARα", "result": 3.6, "unit": "µM"}, {"measurement": "Emax at 10 µM", "setting": "hPPARα; COS-7, read-out: Efficacy (%) at 10 µmol/L PPARα", "result": 76, "unit": "%"}, {"measurement": "Emax at 10 µM", "setting": "hPPARβ/δ; COS-7, read-out: Efficacy (%) at 10 µmol/L PPARβ/δ", "result": 60, "unit": "%"}, {"measurement": "EC50", "setting": "hPPARβ/δ; human PPARβ/δ/Gal4, Cos-7 cells, concentration range 0.001-10 µmol/L, NA: not active", "result": 2.6, "unit": "µM"}, {"measurement": "cytotoxic effects (cell survival)", "setting": "THP-1 cells", "result": "No cytotoxic effects were observed"}, {"measurement": "transactivation of the PDK4-Luc+ indicator", "setting": "PDK4-(PPRE)3-Luc+; L929sA cells, compared to GW7647 at 1 µM", "result": "increased the transactivation of the PDK4-Luc+ indicator"}, {"measurement": "maximal transactivation response compared with GW7647", "setting": "PDK4-(PPRE)3-Luc+; GW7647 at 1 µM as positive control", "result": "outperformed the maximal activity of the prior art compound GW7647"}, {"measurement": "transactivation of the TNFα-dependent NF-κB-driven reporter", "setting": "NF-κB-IL8P-Luc+", "result": "can repress the transactivation of the TNFα-dependent NF-κB-driven reporter"}, {"measurement": "PPAR agonist activity profile", "setting": "[1]", "result": "pan-PPAR agonist activity"}]}
